Experimental data reported in patent publication US8663660B2, “Polymerized micelles” (Les Laboratories Servier, priority 2008, dated 2014).
In brackets after ≈: the same amount, converted by molar mass.

Tests used:
[1] = Critical micellar concentration; assay type: physicochemical
Description: “Self-assembly” of amphiphilic molecules is understood to be the spontaneous organisation, into spherical micelles, of amphiphilic molecules in aqueous media at a concentration greater than the critical micellar concentration or CMC.
The critical micellar concentration of the amphiphilic molecule II-4 as described hereinbefore was determined in experiments to be 0.082 mg/ml.

physchem = settings: for Molar level of inclusion: polymerised micelles at 10 mg/ml, 50° C. 12 hours, molar ratio medicament/(medicament + amphiphilic II-4) × 100; for Level of inclusion by weight: polymerised micelles of amphiphilic II-4 at 10 mg/ml, stirring at 50° C. for 12 hours, weight ratio medicament/(medicament + transporter) × 100; for Number of molecules per micelle: polymerised micelles, molar ratio medicament/amphiphilic II-4 × 100 amphiphilics per micelle
Description: At the end of the inclusion sequence, the solution is filtered in order to remove the excess of non-included active ingredient.
The level of inclusion of S39625 is determined by the reverse-phase HPLC method. This technique is based on the difference in the interaction of molecules between the mobile phase and the stationary phase. This difference affects the retention times for those molecules. For given HPLC conditions, the same molecule always has the same retention time. The reverse-phase HPLC conditions for determination of the level of inclusion of S39625 are an RP-18^c grafted silica column for the stationary phase and a gradient of water and of acetonitrile from 5% to 100% for the mobile phase. Detection of the S39625 at the column exit is carried out by a UV detector at a wavelength of 385 nm. A standard curve for S39625 in acetonitrile was produced by reverse HPLC.

[2] = Solubility of the active ingredient molecule in water; assay type: physicochemical; settings: free molecule, without micelles

Critical micellar concentration [1] | solubility at 12 h (physchem; 50 °C, aqueous with cosolvent or surfactant or cyclodextrin, thermodynamic from solid) | Level of inclusion by weight (physchem; listed as paclitaxel) | Structure (SMILES) | Molar level of inclusion (physchem) | Level of inclusion by weight (physchem) | Number of molecules per micelle (physchem) | Solubility of the molecule in water [2] | Solubility in water (physchem)
0.082 mg/mL |  |  | CCCC#CC#CCCC(=O)NCCCCC(C(=O)O)N(CC(=O)O)CC(=O)O (stereo not shown) [II-4] |  |  |  |  | 
 | 4550 µg/mL (≈ 5.33 mM) | 33% | CC(=O)O[C@H]1C(=O)[C@@]2(C)[C@H]([C@H](OC(=O)c3ccccc3)[C@]3(O)C[C@H](OC(=O)[C@H](O)[C@@H](NC(=O)c4ccccc4)c4ccccc4)C(C)=C1C3(C)C)[C@]1(OC(C)=O)CO[C@@H]1C[C@@H]2O [Paclitaxel, paclitaxel, reference compound] | 25% | 31% | 33 |  | 
 |  |  | c1cc2ccc3cccc4ccc(c1)c2c34 [Pyrene, pyrene, reference compound] | 63% | 34% | 167 |  | 
 |  |  | CCC1(O)C(=O)Cc2c1cc1n(c2=O)Cc2c-1nc1cc3c(cc1c2C1CCC1)OCO3 (stereo not shown) [S 39625] | 56% | 48% | 125 | 0.09 µg/mL | 9000 µg/mL (≈ 20.9 mM)
 |  |  | CN(C)CC[C@H](CSc1ccccc1)Nc1ccc(S(=O)(=O)NC(=O)c2ccc3c(c2)CC[C@@H]2CN(Cc4ccccc4-c4ccc(Cl)cc4)CCN32)cc1[N+](=O)[O-] [S 44563] | 36% | 45% | 56 | 2.00 µg/mL | 8300 µg/mL (≈ 9.89 mM)
